This note sets out measurements from ChEMBL document CHEMBL3792337, “Cardiac Glycosides from the Seeds of Thevetia peruviana” (J Nat Prod, 2016).

Assay [1] is described as follows: Cytotoxicity against human LO2 cells after 48 hrs by MTT assay. To be noted: L02, 48 h. It counts as cell-based. (Formazan colour is commonly taken as a measure of viable cells.)
Another assay relates to SW1990. The assay can be described thus: Cytotoxicity against human SW1990 cells after 48 hrs by MTT assay. It counts as functional, cell-based. The following applies: SW1990, 48 h.
The test system of the next assay is MGC-803. Nature of the assay: Induction of apoptosis in human MGC803 cells after 24 hrs by annexin V-FITC/propidium iodide staining-based flow cytometry. In kind it is functional, cell-based. On the technique in general: In flow cytometry, cells or beads pass a laser one at a time.
Assay [2] can be described thus: Cytotoxicity against human P15 cells after 48 hrs by MTT assay. It counts as functional, cell-based. To be noted: P15, 48 h.
The nature of assay [3]: Cytotoxicity against human MGC803 cells after 48 hrs by MTT assay. In kind it is functional, cell-based. The following applies: MGC-803, 48 h.

Some results are limits rather than exact numbers.

With `CO[C@H]1[C@H](O)[C@H](O[C@H]2CC[C@H]3[C@H](CC[C@@H]4[C@@H]3CC[C@]3(C)[C@@H](C5=CC(=O)OC5)CC[C@]43O)C2)O[C@@H](C)[C@@H]1O`, the 50% inhibitory concentration (IC50) in assay [1] is > 10 µM; in the assay with SW1990, 0.53 µM; in assay [2], 0.21 µM; in assay [3] it was 0.57 µM. The Activity result in the assay with MGC-803 is “Dose-dependent effect”.

Turning to `CO[C@H]1[C@H](O)[C@H](O[C@H]2CC[C@@]3(CO)[C@H](CC[C@@H]4[C@@H]3CC[C@]3(C)[C@@H](C5=CC(=O)OC5)CC[C@]43O)C2)O[C@@H](C)[C@@H]1O`, the IC50 in assay [1] was > 10 µM; in the assay with SW1990 it was 0.02 µM; in assay [2], 0.08 µM; in assay [3], 0.04 µM. Moreover, the Activity entry in the assay on MGC-803 is “Dose-dependent effect”.

In the case of `CO[C@H]1[C@H](O)[C@H](O[C@H]2CC[C@@]3(C)[C@H](CC[C@@H]4[C@@H]3CC[C@]3(C)[C@@H](C5=CC(=O)OC5)CC[C@]43O)C2)O[C@@H](C)[C@@H]1O` [NERIIFOLIN], the 50% inhibitory concentration (IC50) in assay [1] is > 10 µM; in the assay with SW1990, 0.03 µM; in assay [2] it was 0.06 µM; in assay [3], 0.02 µM. The Activity result in the assay with MGC-803 is “Dose-dependent effect”.

For the molecule `CO[C@H]1[C@@H](O)[C@H](O[C@H]2CC[C@@]3(C)[C@@H](CC[C@@H]4[C@@H]3CC[C@]3(C)[C@@H](C5=CC(=O)OC5)CC[C@]43O)C2)O[C@@H](C)[C@@H]1O[C@H]1O[C@@H](CO[C@@H]2O[C@H](CO)[C@@H](O)[C@H](O)[C@H]2O)[C@H](O)[C@@H](O)[C@@H]1O`, the IC50 is > 10 µM in assay [1], > 10 µM with SW1990, 10 µM in assay [2] and 6.56 µM in assay [3].

For the molecule `CO[C@H]1[C@H](OC(C)=O)[C@H](O[C@H]2CC[C@@]3(C)[C@H](CC[C@@H]4[C@@H]3CC[C@]3(C)[C@@H](C5=CC(=O)OC5)CC[C@]43O)C2)O[C@@H](C)[C@@H]1O[C@H]1O[C@@H](CO)[C@H](O)[C@@H](O)[C@@H]1O`, the IC50 in assay [1] is > 10 µM; in the assay with SW1990, 1.84 µM; in assay [2], 2.84 µM; in assay [3] it was 3.21 µM.

As for `CO[C@@H]1[C@@H](O)[C@@H](O[C@@H]2CC[C@]3(OO)[C@@H](CC[C@H]4[C@H]3CC[C@@]3(C)[C@H](C5=CC(=O)OC5)CC[C@@]43O)C2)O[C@H](C)[C@H]1O[C@@H]1O[C@H](CO)[C@@H](O)[C@H](O)[C@H]1O`, the IC50 is > 10 µM in assay [1], > 10 µM in the assay on SW1990, 7.29 µM in assay [2] and > 10 µM in assay [3].

Take `CO[C@H]1[C@H](O)[C@H](O[C@H]2CC[C@@]3(C)[C@@H](CC[C@@H]4[C@@H]3CC[C@]3(C)[C@@H](C5=CC(=O)OC5)CC[C@]43O)C2)O[C@@H](C)[C@@H]1O` [THEVEFOLIN]: the IC50 in assay [1] is > 10 µM; in the assay with SW1990, 0.03 µM; in assay [2], 0.01 µM; in assay [3], 0.37 µM. Besides, the Activity entry with MGC-803 is “Dose-dependent effect”.

Consider `CO[C@H]1[C@H](O)[C@H](O[C@H]2CC[C@@]3(C=O)[C@H](CC[C@@H]4[C@@H]3CC[C@]3(C)[C@@H](C5=CC(=O)OC5)CC[C@]43O)C2)O[C@@H](C)[C@@H]1O` [PERUVOSIDE], for which the concentration for half-maximal inhibition (IC50) in assay [1] was > 10 µM; with SW1990 it was 0.02 µM; in assay [2], 0.03 µM; in assay [3], 0.02 µM.

For orientation: IC50 means the concentration that inhibits the measured activity by half. A higher IC50 goes with weaker potency.
